Test results published in patent US12065427B2, “Heterocyclic compounds capable of activating STING” (BOEHRINGER INGELHEIM INTERNATIONAL GMBH, priority 2021, dated 2024).

What was measured:
STING R232H-variant = target: T1, STING R232H-variant (Homo sapiens, UniProt Q86WV6); experiment: IRF-inducible SEAP reporter assay in THP1-Blue ISG cells, STING R232H-variant; type: cell-based; details: 24 hours incubation
T1 construct: expressed in transfected cells; host or cells: THP1-Blue ISG hSTING KO clone, retroviral MSCV-ires-GFP-Blasti
Text: (§1) In Vitro Cytokine Induction Measured Via Activation of an Interferon Regulatory Factor Inducible Reporter Gene
(§2) Activation of the STING protein expressed in cell lines results in an increase of interferon production. By the stable integration of an interferon regulatory factor (IRF)-inducible SEAP gene (secreted embryonic alkaline phosphatase) reporter construct the functional interferon signaling pathway can be monitored. Using Invivogen's THP1-Blue™ ISG colorimetric enzyme assay and a suitable optical density (OD) reader the activity of SEAP can be detected and quantified. This technique could be used to characterize pharmacological modification of the STING pathway.
(§3) Several single nucleotide polymorphisms have been identified in the human STING gene. To determine the activity of the above described compounds, THP1-Blue™ ISG reporter cell lines expressing the different human STING variants have been generated. To do so, the endogenous human STING was first deleted using the CRISPR/CAS9 system: THP1-Blue ISG cells were electroporated with ALL-IN-ONE CRISPR plasmids targeting the STING gene (purchased from Sigma encoding the gRNA and GFP as a reporter gene for successful transduction). GFP positive cells then were sorted 24 h post transfection and expanded. Cells were then dispersed in semisolid methocel medium to allow single cell clone isolations. Clones were then screened for cGAMP responsiveness using the Quanti-Blue™ reporter assay. Non-responsive clones were subsequently analysed for STING loss by western blotting and sequencing of the STING locus.
(§4) For the overexpression of the human STING variants, a confirmed THP1-Blue™ ISG hSTING KO clone was transduced with individual retroviral plasmids (MSCV-ires-GFP-Blasti) encoding the allelic variants of hSTING (WT (H232R), HAQ, R232H, AQ and R293Q). Transduced cells were sorted for different levels of GFP fluorescence and STING allele expression was analysed by western blot.
(§5) Measurements of SEAP activity were performed in THP1-Blue™ ISG cells stably expressing the different human STING isoforms and the IRF-inducible SEAP reporter construct. Cells were cultivated in RPMI1640 medium with 10% fetal calf serum, 50 μg/ml Penicillin-Streptomycin, 100 μg/ml Zeocin, and 100 μg/ml Normocin in a 37°, 95% humidity and 5% CO2 incubator.
(§6) In preparation for the assay, the cells were distributed into the assay plates with a density of 10000 cells/15 μL per well. Compounds were prepared by an 8 point serial dilution in 50% aqueous DMSO and a final dilution step into medium to ensure a final DMSO concentration of 0.5% in the assay. 5 μL of diluted compounds were added to the plates, followed by a 24 hours incubation at 37° C.
(§7) At the day of the assay, 75 μl per well of Quanti-Blue™ reagent was added to all wells of the plate and the plate was incubated another 30 minutes at 37° C. The OD at 620 nm was measured on the EnVision reader (PerkinElmer).
(§8) EC50 values and Hill slopes were derived from 8-point four parametric non-linear curve fittings with the Megalab software (Boehringer Ingelheim) using the OD at 620 nm.
(§9) Data of EC50 values can be found in tables 2a-2e.
Data of EC50 values on STING R232H-variant can be found in table 2c: […]

STING HAQ-variant = target: T2, STING HAQ-variant (Homo sapiens, UniProt Q86WV6, G230A/H232R/R293Q/R71H); experiment: IRF-inducible SEAP reporter assay in THP1-Blue ISG cells, STING HAQ-variant; type: cell-based; details: STING HAQ-variant (parental or re-introduced), 24 hours incubation
T2 construct: parental THP1-Blue™ ISG cell lines (which express endogenously HAQ); host or cells: THP1-Blue ISG (parental, endogenous HAQ) or STING-KO clone re-transduced with HAQ (MSCV-ires-GFP-Blasti)
Text: as §1, §2, §3, §4, §5, §6, §7, §8, §9
Data of EC50 values on STING HAQ-variant can be found in table 2a. Shown data below were either derived from the parental THP1-Blue™ ISG cell lines (which express endogenously HAQ) or from genetically engineered THP1-Blue™ ISG cell lines in which first STING has been knocked-out and the HAQ specific STING isoform has been re-introduced as described above.

STING H232R-variant = target: T3, STING H232R-variant (Homo sapiens, UniProt Q86WV6, H232R); experiment: IRF-inducible SEAP reporter assay in THP1-Blue ISG cells, STING H232R-variant; type: cell-based; details: STING H232R-variant (WT), 24 hours incubation
T3 construct: expressed in transfected cells; host or cells: THP1-Blue ISG hSTING KO clone, retroviral MSCV-ires-GFP-Blasti
Text: as §1, §2, §3, §4, §5, §6, §7, §8, §9
Data of EC50 values on STING H232R-variant can be found in table 2b: […]

STING R293Q-variant = target: T4, STING R293Q-variant (Homo sapiens, UniProt Q86WV6, H232R/R293Q); experiment: IRF-inducible SEAP reporter assay in THP1-Blue ISG cells, STING R293Q-variant; type: cell-based; details: 24 hours incubation
T4 construct: expressed in transfected cells; host or cells: THP1-Blue ISG hSTING KO clone, retroviral MSCV-ires-GFP-Blasti
Text: as §1, §2, §3, §4, §5, §6, §7, §8, §9
Data of EC50 values on STING R293Q-variant can be found in table 2d: […]

in vitro = details: human, Caco-2, pH 7.4
[1] = tested on: Human STING (hSTING, residues 155-341); experiment: Interaction with hSTING as determined by Differential Scanning Fluorimetry (DSF); type: binding; details: 100 μM test compounds, 5 μM target protein
Protocol: Interaction with hSTING as Determined by Differential Scanning Fluorimetry (DSF)
In DSF, the temperature at which a protein unfolds, also called the melting temperature Tm, is measured by changes in fluorescence of a dye that binds to the hydrophobic parts of the protein. Tm shifts upon binding of a small molecule are correlated with the binding affinity of this small molecule. As target protein, Human STING (hSTING, residues 155-341, MW: 21578.4 Da; protein stock solution: c=1302 μM stock solution in 20 mM Tris, 100 mM NaCl, 2 mM TCEP pH 8.8) was used, as assay buffer 20 mM Tris, 150 mM NaCI pH7.5 was added where and as necessary.
Final concentrations of components in assay: 100 μM test compounds, 5 μM target protein, “5×” SYPR Orange (from stock solution SYPRO orange solution in DMSO (invitrogen cat.-no. S6650-500 ul), concentration “5000×”)
1) Dilutions of compound stock solutions (10 mM in DMSO) were prepared in assay buffer (20 mM Tris, 150 mM NaCl; pH7.5)
2) 5 μl fluorescent dye stock solution (5000×SYPRO Orange in DMSO) was mixed with 19 μl target protein (1302 μM) and 976 μl assay buffer.
3) 2 μl of this protein-dye-mixture (25×SYPRO Orange and 25 μM Protein) was added to 8 μl diluted compound solution as prepared in step 1. Final volume was 10 μl.
4) With every 20 compounds, two negative controls were measured.
5) The plates were prepared for duplicate measurement and centrifuged for 2 min at 1000 g.
6) For the measurement, a CFX384 Real-Time System (Bio-Rad) was used. The run consisted of 140 cycles with 0.5° C./cycle (temperature ramp 15 s/cycle, 25° C. to 95° C.).
Data analysis: The melting curves were processed in Bio-Rad CFX Manager. Peak type was set to “negative”. Two replicates of TM (melting temperature) measurements were averaged and the standard deviation was calculated.

T2 sequence (Q86WV6 whole entry R71H/G230A/H232R/R293Q): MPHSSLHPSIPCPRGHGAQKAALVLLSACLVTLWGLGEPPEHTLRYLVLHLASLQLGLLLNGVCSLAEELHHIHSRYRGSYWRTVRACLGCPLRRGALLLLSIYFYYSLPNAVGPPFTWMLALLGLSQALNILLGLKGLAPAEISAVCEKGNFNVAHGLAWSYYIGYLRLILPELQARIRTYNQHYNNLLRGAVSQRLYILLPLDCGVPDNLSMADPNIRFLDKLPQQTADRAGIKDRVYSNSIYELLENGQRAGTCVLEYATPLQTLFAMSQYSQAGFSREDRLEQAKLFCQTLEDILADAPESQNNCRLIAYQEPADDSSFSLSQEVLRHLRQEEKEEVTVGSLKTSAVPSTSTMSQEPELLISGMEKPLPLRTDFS
T4 sequence (Q86WV6 whole entry H232R/R293Q): as the sequence (Q86WV6 whole entry R71H/G230A/H232R/R293Q) above, with H71R, A230G counted along it
T3 sequence (Q86WV6 whole entry H232R): as the sequence (Q86WV6 whole entry R71H/G230A/H232R/R293Q) above, with H71R, A230G, Q293R counted along it
T1 sequence (Q86WV6 whole entry, stated change not applied): as the sequence (Q86WV6 whole entry R71H/G230A/H232R/R293Q) above, with H71R, A230G, R232H, Q293R counted along it

Structure (SMILES)	EC50 (STING R232H-variant) [nM]	EC50 (STING HAQ-variant) [nM]	EC50 (STING H232R-variant) [nM]	EC50 (STING R293Q-variant) [nM]	Papp A→B at 10 μM (in vitro) [×10⁻⁶ cm/s]	efflux ratio at 10 μM (in vitro)	thermal shift (ΔTm) [1] [K]
Cc1cccc2c(-c3cccc4nn(C)cc34)nn(-c3ccc(N4CCS(=O)(=O)CC4)nc3)c12 [Example #5, 4-(5-{2,7-dimethyl-1H,2′H-[3,4′-biindazol]-1-yl}pyri-din-2-yl)-1λ^6-thiomorpho-line-1,1-dione]	1000	1400	500	1200			
CC(=O)N(C)C1CCN(c2ccc(-n3nc(-c4cccc5nn(C)cc45)c4cccc(C)c43)cn2)C1 (centres unmarked) [Example #6, N-[1-(5-{2′,7-dimethyl-1H,2′H-[3,4′-biindazol]-1-yl}pyridin-2-yl)pyrrolidin-3-yl]-N-methylacetamide]		3100			39	0.4	22
Cc1cccc2c(-c3cccc4nn(C)cc34)nn(-c3ccc(N4CC5(CCS(=O)(=O)CC5)C4)nc3)c12 [compound 4, 2-(5-{2′,7-dimethyl-1H,2′H-[3,4′-biindazol]-1-yl}pyri-din-2-yl)-7λ^6-thia-2-azaspiro[3.5]nonane-7,7-dione]		1100					20
Cc1cccc2c(-c3cccc4nn(C)cc34)nn(-c3ccc(N4CCN5C(=O)OCC5C4)nc3)c12 (centres unmarked) [compound 8, 7-(5-{2′,7-dimethyl-1H,2′H-[3,4′-biindazol]-1-yl}pyri-din-2-yl)-hexahydro-1H-[1,3]oxazolo[3,4-a]pyrazin-3-one]		1200					21
COCCNc1ccc(-n2nc(-c3cccc4nn(C)cc34)c3cccc(C)c32)cn1 [compound 14, 5-{2′,7-dimethyl-1H,2′H-[3,4′-biindazol]-1-yl}-N-(2-methoxyethyl)pyridin-2-amine]		6900			39	0.3	18
Cc1cccc2c(-c3cccc4nn(C)cc34)nn(-c3ccc(N4CCC(c5cnn(C)c5)CC4)nc3)c12 [compound 20, 2′,7-dimethyl-1-{6-[4-(1-methyl-1H-pyrazol-4-yl)pi-peridin-1-yl]pyridin-3-yl}-1H,2′H-3,4′-biindazole]		2200				0.8	20
COC(=O)c1ccc2c(-c3cccc4nn(C)cc34)nn(-c3ccc(N4CCC(S(C)(=O)=O)CC4)nc3)c2c1C [compound 25, methyl 1-[6-(4-meth-anesulfonylpiperidin-1-yl)pyridin-3-yl]-2′,7-di-methyl-1H,2′H-[3,4′-biindazole]-6-carboxylate]		200					25
CCOC(=O)C1CCN(c2ccc(-n3nc(-c4cccc5nn(C)cc45)c4cccc(C)c43)cn2)CC1 [compound 31, ethyl 1-(5-{2′,7-dimethyl-1H,2′H-[3,4′-biindazol]-1-yl}pyridin-2-yl)piperidine-4-carboxylate]		5400				0.6	
Cc1cccc2c(-c3cccc4nn(C)cc34)nn(-c3ccc(N4CCCNCC4)nc3)c12 [compound 45, 1-(6-(1,4-diazepan-1-yl)pyridin-3-yl)-2′,7-dimethyl-1H,2′H-3,4′-biindazole]		1900					19
Cc1cccc2c(-c3cccn4nccc34)nn(-c3ccc(N4CCC(C(=O)O)CC4)nc3)c12 [compound 60, 1-[5-(7-methyl-3-{pyra-zolo[1,5-a]pyridin-4-yl}-1H-indazol-1-yl)pyridin-2-yl]piperidine-4-carboxylic acid]		6600			19	0.9	
Cc1cccc2c(-c3cccc4nn(C)cc34)nn(-c3ccc(-c4ccc(S(C)(=O)=O)cc4)nc3)c12 [compound 73, 1-[6-(4-methanesulfonylphenyl)pyridin-3-yl]-2′,7-dimethyl-1H,2′H-3,4′-biindazole]		4400				0.5	

The next lines start with results.

EC50 (STING R232H-variant) [nM]	EC50 (STING HAQ-variant) [nM]	EC50 (STING H232R-variant) [nM]	EC50 (STING R293Q-variant) [nM]	Papp A→B at 10 μM (in vitro) [×10⁻⁶ cm/s]	efflux ratio at 10 μM (in vitro)	Structure (SMILES)	thermal shift (ΔTm) [1] [K]
	4300					C#Cc1cccc2c(-c3cccc4nn(C)cc34)nn(-c3ccc(N4CC5C(C4)C5C(=O)O)nc3)c12 (centres unmarked) [Example #74, 3-(5-{7-ethynyl-2′-methyl-1H,2′H-[3,4′-biindazol]-1-yl}pyridin-2-yl)-3-azabicyclo[3.1.0]hexane-6-carboxylic acid]	16
	3200			27	0.3	Cc1cccc2c(-c3cccc4nn(C)cc34)nn(-c3ccc(N4CC5CC4CO5)nc3)c12 (centres unmarked) [compound 11, 2′,7-dimethyl-1-(6-{2-oxa-5-azabicyclo[2.2.1]heptan-5-yl}pyridin-3-yl)-1H,2′H-3,4′-biindazole]	21
	4700			23	0.3	Cc1cccc2c(-c3cccc4nn(C)cc34)nn(-c3ccc(N4CCC(N5CCCC5=O)CC4)nc3)c12 [compound 21, 1-[1-(5-{2′,7-dimethyl-1H,2′H-[3,4′-biindazol]-1-yl}pyridin-2-yl)piperidin-4-yl]pyrrolidin-2-one]	20
	5200			32	0.5	Cc1cccc2c(-c3cccc4nn(C)cc34)nn(-c3ccc(N4CCC(C)(C(=O)O)CC4)nc3)c12 [compound 27, 1-(5-{2′,7-dimethyl-1H,2′H-[3,4′-biindazol]-1-yl}pyri-din-2-yl)-4-methylpiperi-dine-4-carboxylic acid]	22
	1900				0.4	Cc1cccc2c(-c3cccc4nn(C)cc34)nn(-c3ccc(N4CCCN(C=O)CC4)nc3)c12 [compound 52, 4-(5-{2′,7-dimethyl-1H,2′H-[3,4′-biindazol]-1-yl}pyridin-2-yl)-1,4-di-azepane-1-carbalde-hyde]	21
